Data taken from US9403813B2, “Azetidine amide derivatives as orexin receptor antagonists” (ACTELION PHARMACEUTICALS LTD, priority 2013, dated 2016).

What was measured:
[1] = target: human orexin-1 receptor (Homo sapiens (Human), UniProt O43613); assay: Intracellular calcium measurements (FLIPR), antagonism of orexin-A response; type: cell-based; details: CHO cells expressing human orexin-1 receptor, 3 nM orexin-A, geometric mean if determined several times, read-out: IC50 OX1
In short: (§1)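 CHO cells expressing human OX1 or OX2 receptor, loaded with fluo-4 AM plus probenecid, preincubated with antagonist 120 min before 3 nM orexin-A challenge. FLIPR calcium peak heights compared with agonist-plus-vehicle response. IC50 possibly normalized to on-plate reference; geometric mean of repeat determinations.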

[2] = target: human orexin-2 receptor (Homo sapiens (Human), UniProt O43614); assay: as above; type: cell-based; details: CHO cells expressing human orexin-2 receptor, 3 nM orexin-A, geometric mean if determined several times, read-out: IC50 OX2
human orexin-2 receptor, sequence (O43614 whole entry): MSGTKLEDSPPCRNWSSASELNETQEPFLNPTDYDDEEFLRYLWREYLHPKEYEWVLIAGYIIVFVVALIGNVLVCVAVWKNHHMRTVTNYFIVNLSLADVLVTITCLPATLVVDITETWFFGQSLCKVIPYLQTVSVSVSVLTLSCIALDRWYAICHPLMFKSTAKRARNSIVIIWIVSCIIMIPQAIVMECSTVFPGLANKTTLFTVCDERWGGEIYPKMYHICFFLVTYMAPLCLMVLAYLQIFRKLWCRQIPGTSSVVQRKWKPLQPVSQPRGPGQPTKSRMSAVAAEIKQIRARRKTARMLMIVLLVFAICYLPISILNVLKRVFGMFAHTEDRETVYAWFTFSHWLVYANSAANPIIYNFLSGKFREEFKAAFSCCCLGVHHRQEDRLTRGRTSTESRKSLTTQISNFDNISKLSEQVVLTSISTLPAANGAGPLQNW
In short: as §1

human orexin-1 receptor, sequence (O43613 whole entry): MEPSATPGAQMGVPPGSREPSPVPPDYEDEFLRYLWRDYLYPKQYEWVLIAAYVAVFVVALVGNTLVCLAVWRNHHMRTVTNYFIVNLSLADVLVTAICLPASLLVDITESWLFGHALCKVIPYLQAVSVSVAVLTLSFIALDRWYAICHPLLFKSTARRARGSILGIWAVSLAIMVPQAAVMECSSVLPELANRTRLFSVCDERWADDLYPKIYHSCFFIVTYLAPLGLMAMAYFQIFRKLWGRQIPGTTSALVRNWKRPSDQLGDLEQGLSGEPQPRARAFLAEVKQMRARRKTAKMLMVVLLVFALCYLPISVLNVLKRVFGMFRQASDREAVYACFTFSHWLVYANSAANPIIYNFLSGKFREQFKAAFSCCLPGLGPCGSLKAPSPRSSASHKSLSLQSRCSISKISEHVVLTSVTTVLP

| SMILES | IC50 [1] [nM] | IC50 [2] [nM] |
| --- | --- | --- |
| Cc1cccc(-c2oc(C)nc2C(=O)N2CC[C@H]2c2nc(-c3cccc(Cl)c3C)no2)c1 [Example 71, {(S)-2-[3-(3-Chloro-2-methyl-phenyl)-[1,2,4]oxadiazol-5-yl]-azetidin-1-yl}-(2-methyl-5-m-tolyl-oxazol-4-yl)-methanone] | 693 | 555 |
| Cc1onc(-c2ccccc2Cl)c1C(=O)N1CC[C@H]1c1nc(-c2cccc(Cl)c2C)no1 [Example 72, {(S)-2-[3-(3-Chloro-2-methyl-phenyl)-[1,2,4]oxadiazol-5-yl]-azetidin-1-yl}-[3-(2-chloro-phenyl)-5-methyl-isoxazol-4-yl]-methanone] | 1400 | 666 |
| Cc1c(Cl)cccc1-c1noc([C@@H]2CCN2C(=O)c2ccccc2-c2ccccc2)n1 [Example 73, Biphenyl-2-yl-{(S)-2-[3-(3-chloro-2-methyl-phenyl)-[1,2,4]oxadiazol-5-yl]-azetidin-1-yl}-methanone] | 383 | 20 |
| COc1cc(C(=O)N2CC[C@H]2c2nc(-c3cccc(Cl)c3C)no2)c(-n2nccn2)cc1Cl [Example 74, (4-Chloro-5-methoxy-2-[1,2,3]triazol-2-yl-phenyl)-{(S)-2-[3-(3-chloro-2-methyl-phenyl)-[1,2,4]oxadiazol-5-yl]-azetidin-1-yl}-methanone] | 578 | 6 |
| COc1cc(C(=O)N2CC[C@H]2c2nc(-c3ccccc3OC(F)(F)F)no2)c(-n2nccn2)cc1Cl [Example 75, (4-Chloro-5-methoxy-2-[1,2,3]triazol-2-yl-phenyl)-{(S)-2-[3-(2-trifluoromethoxy-phenyl)-[1,2,4]oxadiazol-5-yl]-azetidin-1-yl}-methanone] | 378 | 12 |
| Cc1c(Cl)cccc1-c1noc([C@@H]2CCN2C(=O)c2ccc(Cl)cc2-n2nccn2)n1 [Example 76, {(S)-2-[3-(3-Chloro-2-methyl-phenyl)-[1,2,4]oxadiazol-5-yl]-azetidin-1-yl}-(4-chloro-2-[1,2,3]triazol-2-yl-phenyl)-methanone] | 909 | 11 |
| O=C(c1ccc(Cl)cc1-n1nccn1)N1CC[C@H]1c1nc(-c2ccccc2OC(F)(F)F)no1 [Example 77, (4-Chloro-2-[1,2,3]triazol-2-yl-phenyl)-{(S)-2-[3-(2-trifluoromethoxy-phenyl)-[1,2,4]oxadiazol-5-yl]-azetidin-1-yl}-methanone] | 616 | 28 |
| Cc1ccc(C(=O)N2CC[C@H]2c2nc(-c3cccc(Cl)c3C)no2)c(-n2nccn2)c1 [Example 78, {(S)-2-[3-(3-Chloro-2-methyl-phenyl)-[1,2,4]oxadiazol-5-yl]-azetidin-1-yl}-(4-methyl-2-[1,2,3]triazol-2-yl-phenyl)-methanone] | 646 | 22 |
| Cc1ccc(C(=O)N2CC[C@H]2c2nc(-c3ccccc3OC(F)(F)F)no2)c(-n2nccn2)c1 [Example 79, (4-Methyl-2-[1,2,3]triazol-2-yl-phenyl)-{(S)-2-[3-(2-trifluoromethoxy-phenyl)-[1,2,4]oxadiazol-5-yl]-azetidin-1-yl}-methanone] | 338 | 17 |
| Cc1c(Cl)cccc1-c1noc([C@@H]2CCN2C(=O)c2cc(Cl)ccc2-n2nccn2)n1 [Example 80, {(S)-2-[3-(3-Chloro-2-methyl-phenyl)-[1,2,4]oxadiazol-5-yl]-azetidin-1-yl}-(5-chloro-2-[1,2,3]triazol-2-yl-phenyl)-methanone] | 756 | 49 |
| O=C(c1cc(Cl)ccc1-n1nccn1)N1CC[C@H]1c1nc(-c2ccccc2OC(F)(F)F)no1 [Example 81, (5-Chloro-2-[1,2,3]triazol-2-yl-phenyl)-{(S)-2-[3-(2-trifluoromethoxy-phenyl)-[1,2,4]oxadiazol-5-yl]-azetidin-1-yl}-methanone] | 338 | 47 |
| COc1cc(C(=O)N2CC[C@H]2c2noc(-c3ccccc3OC(F)(F)F)n2)c(-n2nccn2)cc1F [Example 87, (4-Fluoro-5-methoxy-2-[1,2,3]triazol-2-yl-phenyl)-{(S)-2-[5-(2-trifluoromethoxy-phenyl)-[1,2,4]oxadiazol-3-yl]-azetidin-1-yl}-methanone] | 1340 | 78 |
| Cc1ccc(-n2nccn2)c(C(=O)N2CC[C@H]2c2noc(-c3cccc(F)c3C)n2)c1 [Example 93, {(S)-2-[5-(3-Fluoro-2-methyl-phenyl)-[1,2,4]oxadiazol-3-yl]-azetidin-1-yl}-(5-methyl-2-[1,2,3]triazol-2-yl-phenyl)-methanone] | 655 | 8 |
| COc1cc(C(=O)N2CC[C@H]2c2noc(-c3ccccc3OC(F)(F)F)n2)c(-n2nccn2)cc1Cl [Example 94, (4-Chloro-5-methoxy-2-[1,2,3]triazol-2-yl-phenyl)-{(S)-2-[5-(2-trifluoromethoxy-phenyl)-[1,2,4]oxadiazol-3-yl]-azetidin-1-yl}-methanone] | 326 | 11 |

Compounds with a lower IC50 [1], results first:

| IC50 [1] [nM] | IC50 [2] [nM] | SMILES |
| --- | --- | --- |
| 97 | 2 | Cc1cc(C(=O)N2CC[C@H]2c2nc(-c3cccc(Cl)c3C)no2)c(-n2nccn2)cc1C [Example 70, {(S)-2-[3-(3-Chloro-2-methyl-phenyl)-[1,2,4]oxadiazol-5-yl]-azetidin-1-yl}-(4,5-dimethyl-2-[1,2,3]triazol-2-yl-phenyl)-methanone] |
| 171 | 10 | Cc1cc(-n2nccn2)c(C(=O)N2CC[C@H]2c2nc(-c3cccc(Cl)c3C)no2)cc1Cl [Example 82, {(S)-2-[3-(3-Chloro-2-methyl-phenyl)-[1,2,4]oxadiazol-5-yl]-azetidin-1-yl}-(5-chloro-4-methyl-2-[1,2,3]triazol-2-yl-phenyl)-methanone] |
| 167 | 13 | Cc1cc(-n2nccn2)c(C(=O)N2CC[C@H]2c2nc(-c3ccccc3OC(F)(F)F)no2)cc1Cl [Example 83, (5-Chloro-4-methyl-2-[1,2,3]triazol-2-yl-phenyl)-{(S)-2-[3-(2-trifluoromethoxy-phenyl)-[1,2,4]oxadiazol-5-yl]-azetidin-1-yl}-methanone] |
| 103 | 11 | Cc1ccc(-n2nccn2)c(C(=O)N2CC[C@H]2c2noc(-c3ccccc3OC(F)(F)F)n2)c1 [Example 84, (5-Methyl-2-[1,2,3]triazol-2-yl-phenyl)-{(S)-2-[5-(2-trifluoromethoxy-phenyl)-[1,2,4]oxadiazol-3-yl]-azetidin-1-yl}-methanone] |
| 34 | 3 | Cc1cc(C(=O)N2CC[C@H]2c2noc(-c3ccccc3OC(F)(F)F)n2)c(-n2nccn2)cc1C [Example 85, (4,5-Dimethyl-2-[1,2,3]triazol-2-yl-phenyl)-{(S)-2-[5-(2-trifluoromethoxy-phenyl)-[1,2,4]oxadiazol-3-yl]-azetidin-1-yl}-methanone] |
| 193 | 4 | COc1cc(C(=O)N2CC[C@H]2c2noc(-c3ccccc3OC(F)(F)F)n2)c(-n2nccn2)cc1C [Example 86, (5-Methoxy-4-methyl-2-[1,2,3]triazol-2-yl-phenyl)-{(S)-2-[5-(2-trifluoromethoxy-phenyl)-[1,2,4]oxadiazol-3-yl]-azetidin-1-yl}-methanone] |
| 178 | 0.6 | COc1cc(C(=O)N2CC[C@H]2c2noc(-c3cccc(F)c3OC)n2)c(-n2nccn2)cc1C [Example 88, {(S)-2-[5-(3-Fluoro-2-methoxy-phenyl)-[1,2,4]oxadiazol-3-yl]-azetidin-1-yl}-(5-methoxy-4-methyl-2-[1,2,3]triazol-2-yl-phenyl)-methanone] |
| 82 | 3 | Cc1cc(C(=O)N2CC[C@H]2c2noc(-c3cccc(F)c3C)n2)c(-n2nccn2)cc1C [Example 89, (4,5-Dimethyl-2-[1,2,3]triazol-2-yl-phenyl)-{(S)-2-[5-(3-fluoro-2-methyl-phenyl)-[1,2,4]oxadiazol-3-yl]-azetidin-1-yl}-methanone] |
| 52 | 2 | CCOc1ncccc1-c1nc([C@@H]2CCN2C(=O)c2cc(C)ccc2-n2nccn2)no1 [Example 90, {(S)-2-[5-(2-Ethoxy-pyridin-3-yl)-[1,2,4]oxadiazol-3-yl]-azetidin-1-yl}-(5-methyl-2-[1,2,3]triazol-2-yl-phenyl)-methanone] |
| 17 | 0.6 | CCOc1ncccc1-c1nc([C@@H]2CCN2C(=O)c2cc(C)c(C)cc2-n2nccn2)no1 [Example 91, (4,5-Dimethyl-2-[1,2,3]triazol-2-yl-phenyl)-{(S)-2-[5-(2-ethoxy-pyridin-3-yl)-[1,2,4]oxadiazol-3-yl]-azetidin-1-yl}-methanone] |
| 37 | 1 | CCOc1ncccc1-c1nc([C@@H]2CCN2C(=O)c2cc(OC)c(C)cc2-n2nccn2)no1 [Example 92, {(S)-2-[5-(2-Ethoxy-pyridin-3-yl)-[1,2,4]oxadiazol-3-yl]-azetidin-1-yl}-(5-methoxy-4-methyl-2-[1,2,3]triazol-2-yl-phenyl)-methanone] |
| 60 | 6 | Cc1cc(-n2nccn2)c(C(=O)N2CC[C@H]2c2noc(-c3ccccc3OC(F)(F)F)n2)cc1Cl [Example 95, (5-Chloro-4-methyl-2-[1,2,3]triazol-2-yl-phenyl)-{(S)-2-[5-(2-trifluoromethoxy-phenyl)-[1,2,4]oxadiazol-3-yl]-azetidin-1-yl}-methanone] |
| 306 | 3 | COc1cc(C(=O)N2CC[C@H]2c2noc(-c3cccc(F)c3C)n2)c(-n2nccn2)cc1Cl [Example 96, (4-Chloro-5-methoxy-2-[1,2,3]triazol-2-yl-phenyl)-{(S)-2-[5-(3-fluoro-2-methyl-phenyl)-[1,2,4]oxadiazol-3-yl]-azetidin-1-yl}-methanone] |
